Assay results from PubChem BioAssay (NCI).
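Briefly, cells in 96-well plates were exposed to five compound concentrations for 48 h, and endpoints were estimated by linear interpolation. GI50 is the concentration that inhibits growth by half. The concentration for full growth arrest is given as TGI.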

Columns and labels:
Test in all cases: NCI anticancer screen, dose series, 48 h
[1] = system: 786-0 renal
[2] = system: A498 renal
[3] = system: A549 NSCLC
[4] = system: ACHN renal
[5] = system: BT-549 breast
[6] = system: CAKI-1 renal
[7] = system: CCRF-CEM leukemia
[8] = system: COLO 205 colon
[9] = system: DU-145 prostate
[10] = system: HCC-2998 colon
[11] = system: HCT-116 colon
[12] = system: HCT-15 colon
[13] = system: HL-60(TB) leukemia
[14] = system: HOP-62 NSCLC
[15] = system: HOP-92 NSCLC
[16] = system: HS 578T breast
[17] = system: HT29 colon
[18] = system: IGROV1 ovarian
[19] = system: K-562 leukemia
[20] = system: KM12 colon
[21] = system: LOX IMVI melanoma
[22] = system: MALME-3M melanoma
[23] = system: MCF7 breast
[24] = system: MDA-MB-231 breast
[25] = system: MDA-MB-435
[26] = system: MOLT-4 leukemia
[27] = system: NCI-H23 lung
[28] = system: NCI-H460 lung
[29] = system: NCI-H522 lung
[30] = system: NCI/ADR-RES ovarian
[31] = system: OVCAR-3 ovarian
[32] = system: OVCAR-5 ovarian
[33] = system: OVCAR-8 ovarian
[34] = system: PC-3 prostate
[35] = system: RXF 393 renal
[36] = system: SF-268 CNS
[37] = system: SF-295 CNS
[38] = system: SF-539 CNS
[39] = system: SK-MEL-2 melanoma
[40] = system: SK-MEL-28 melanoma
[41] = system: SK-MEL-5 melanoma
[42] = system: SK-OV-3 ovarian
[43] = system: SN12C renal
[44] = system: SNB-19 CNS
[45] = system: SNB-75 CNS
[46] = system: SR leukemia
[47] = system: SW-620 colon
[48] = system: T-47D breast
[49] = system: TK-10 renal
[50] = system: U251 CNS
[51] = system: UACC-257 melanoma
[52] = system: UACC-62 melanoma
[53] = system: UO-31 renal

With `CCOC(=O)C1=C(Nc2ccc(OC)cc2)C(N)=NC1=N` the GI50 [1] was 5.04 µM, the TGI [1] was over 100 µM and the GI50 [2] was 2710 nM. For the same molecule, the TGI [2] was 8.11 µM, the GI50 [3] was 3.73 µM and the TGI [3] was over 100 µM. It also gave a GI50 [4] of 8.84 µM, a TGI [4] of over 100 µM and a GI50 [5] of 5.37 µM. For the same molecule, the TGI [5] was over 100 µM, the GI50 [6] was 5.84 µM and the TGI [6] was over 100 µM. It also gave a GI50 [7] of 3.24 µM, a TGI [7] of over 100 µM and a GI50 [8] of 3.07 µM. The TGI [8] was 10.1 µM, the GI50 [9] was 3.49 µM and the TGI [9] was over 100 µM. For the same molecule, the GI50 [10] was 3.94 µM, the TGI [10] was over 100 µM and the GI50 [11] was 2450 nM. For the same molecule, the TGI [11] was over 100 µM, the GI50 [12] was 1830 nM and the TGI [12] was over 100 µM. For the same molecule, the GI50 [13] was 3.51 µM, the TGI [13] was over 100 µM and the GI50 [14] was 6.23 µM. The TGI [14] was over 100 µM, the GI50 [15] was 2560 nM and the TGI [15] was over 100 µM. It also gave a GI50 [16] of 4.17 µM, a TGI [16] of over 100 µM and a GI50 [17] of 2900 nM. The TGI [17] was over 100 µM, the GI50 [18] was 5.5 µM and the TGI [18] was over 100 µM. The GI50 [19] was 3.02 µM, the TGI [19] was over 100 µM and the GI50 [20] was 2640 nM. It also gave a TGI [20] of over 100 µM, a GI50 [21] of 5.47 µM and a TGI [21] of over 100 µM. The GI50 [22] was 7.29 µM, the TGI [22] was over 100 µM and the GI50 [23] was 587 nM. For the same molecule, the TGI [23] was over 100 µM, the GI50 [24] was 4.02 µM and the TGI [24] was over 100 µM. The GI50 [25] was 336 nM, the TGI [25] was 1500 nM and the GI50 [26] was 4.38 µM. For the same molecule, the TGI [26] was over 100 µM, the GI50 [27] was 4.84 µM and the TGI [27] was over 100 µM. For the same molecule, the GI50 [28] was 3.73 µM, the TGI [28] was over 100 µM and the GI50 [29] was 3.12 µM. It also gave a TGI [29] of over 100 µM, a GI50 [30] of 3.38 µM and a TGI [30] of over 100 µM. It also gave a GI50 [31] of 2490 nM, a TGI [31] of 6.5 µM and a GI50 [32] of 5.09 µM. The TGI [32] was over 100 µM, the GI50 [33] was 4.63 µM and the TGI [33] was over 100 µM. It also gave a GI50 [34] of 3.26 µM, a TGI [34] of over 100 µM and a GI50 [35] of 1720 nM. It also gave a TGI [35] of 6.47 µM, a GI50 [36] of 7.87 µM and a TGI [36] of over 100 µM. The GI50 [37] was 2710 nM, the TGI [37] was 8.32 µM and the GI50 [38] was 2150 nM. The TGI [38] was 6.27 µM, the GI50 [39] was 8.03 µM and the TGI [39] was over 100 µM. The GI50 [40] was 6.89 µM, the TGI [40] was over 100 µM and the GI50 [41] was 570 nM. The TGI [41] was 55.8 µM, the GI50 [42] was 2990 nM and the TGI [42] was 18.1 µM. For the same molecule, the GI50 [43] was 5.14 µM, the TGI [43] was over 100 µM and the GI50 [44] was 3.68 µM. For the same molecule, the TGI [44] was over 100 µM, the GI50 [45] was 3.03 µM and the TGI [45] was over 100 µM. It also gave a GI50 [46] of 2310 nM, a TGI [46] of over 100 µM and a GI50 [47] of 3.95 µM. The TGI [47] was over 100 µM, the GI50 [48] was over 100 µM and the TGI [48] was over 100 µM. It also gave a GI50 [49] of 8.31 µM, a TGI [49] of over 100 µM and a GI50 [50] of 3.81 µM. For the same molecule, the TGI [50] was over 100 µM, the GI50 [51] was over 100 µM and the TGI [51] was over 100 µM. The GI50 [52] was 2850 nM, the TGI [52] was over 100 µM and the GI50 [53] was 6.29 µM. For the same molecule, the TGI [53] was over 100 µM.
